Experimental data taken from US5663296A, “Hydroxamate inhibitors of endothelin converting enzyme” (Warner-Lambert Company, priority 1995, dated 1997).
Structures can show the parent of a compound that is named as a salt. *1 amine or outer side, *2 acyl side, *3 side chain or, on linkers, in order; H or OH if unused. Where a SMILES comes first, the peptide text is derived from it. [ ]: non-standard residue; d: D form. The star is where a group is joined. Trp(1-formyl) = O=Cn1cc(C[C@H](N[*:1])C(=O)[*:2])c2ccccc21; Sta = CC(C)C[C@H](N)[C@@H](O)CC(=O)O; Suc = O=C(CCC(=O)[*:2])[*:1]; Isovaleryl = CC(C)CC(=O)*; Aun = NCCCCCCCCCCC(=O)O; Boc = CC(C)(C)OC(=O)*; NHOH = ON*

Columns and labels:
allergic sheep = conditions: cited from earlier work
mouse = mouse model of endotoxic shock; cited from earlier work
[1] = target: T1, endothelin converting enzyme (ECE) (Homo sapiens, UniProt P42892); assay: ECE activity assay, ir-ET-1 formed from big ET measured by radioimmunoassay; format: biochemical
T1 sequence (P42892 1-770): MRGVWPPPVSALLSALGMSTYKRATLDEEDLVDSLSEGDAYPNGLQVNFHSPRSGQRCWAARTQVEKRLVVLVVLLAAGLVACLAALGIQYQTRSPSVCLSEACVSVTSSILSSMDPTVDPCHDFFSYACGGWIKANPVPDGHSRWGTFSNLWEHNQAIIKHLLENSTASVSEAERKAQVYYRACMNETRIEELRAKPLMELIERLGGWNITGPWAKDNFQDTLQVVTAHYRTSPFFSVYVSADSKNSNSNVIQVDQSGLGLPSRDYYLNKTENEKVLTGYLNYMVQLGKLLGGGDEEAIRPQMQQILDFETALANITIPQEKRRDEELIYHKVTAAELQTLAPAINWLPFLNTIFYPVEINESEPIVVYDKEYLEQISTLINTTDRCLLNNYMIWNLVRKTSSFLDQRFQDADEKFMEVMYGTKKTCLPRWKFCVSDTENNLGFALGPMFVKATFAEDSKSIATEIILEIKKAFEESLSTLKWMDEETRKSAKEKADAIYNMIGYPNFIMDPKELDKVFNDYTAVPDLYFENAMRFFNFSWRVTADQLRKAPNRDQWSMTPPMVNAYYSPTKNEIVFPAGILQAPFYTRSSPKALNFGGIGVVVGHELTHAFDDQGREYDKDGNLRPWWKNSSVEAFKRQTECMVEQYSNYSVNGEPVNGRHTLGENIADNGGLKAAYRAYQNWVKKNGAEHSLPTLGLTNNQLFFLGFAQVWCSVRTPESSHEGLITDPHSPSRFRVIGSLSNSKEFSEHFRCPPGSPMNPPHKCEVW
Protocol: ECE Activity Assay: The typical reaction mixture (50 μL) contained 10 μM big ET, 100 mM Hepes-KOH (pH 7.0), 0.25% Triton X-100, 0.01% NaN3, 0.2 mM phenylmethylsulfonyl fluoride, 50 μM pepstatin A, 0.1 mM leupeptin, the indicated concentration of compound (or DMSO for control), and the indicated amount of protein. The final DMSO concentration was kept at 3%. After incubation for 1.5 hours at 37° C., the reaction was stopped by the addition of EDTA to a final concentration of 10 mM. This final mixture was diluted (usually 100-fold) with the radioimmunoassay buffer (see below) and used for radioimmunoassay.
Radioimmunoassay (RIA): For the measurement of immunoreactive (ir) ET-1, the assay mixture (250 μL) contained the antibody against ET-1, an ET-1 sample, and [^125 I]ET-1 (7000 cpm) in the radioimmunoassay buffer (60 mM potassium phosphate (KPi), pH 7.4/10 mM, EDTA/8 mM, NaN3 /3% DMSO/0.1% bovine serum albumin/0.1% Tween 20). The order of the addition was ET-1 sample, followed by antibody, then [^125 I]ET-1. After incubation at 4° C. for 0.5 to 2 days, unbound ET-1 was co-precipitated by the addition of charcoal (2.4%, w/v)/dextran (0.24%, w/v) suspension (125 μL) in the RIA buffer with BSA replacedby gelatin (0.25%, w/v). The amount of ir-ET-1 was measured by counting the supernatant and determined from the standard curve. The cross-reactivity to big ET-1 was less than 0.01% and the detection limit was 1 Fmol.

rats [2] = conditions: cited from earlier work
rats [3] = conditions: cited from earlier work; remark: listed apart in the source
[4] = tested on: cultured bovine aortic endothelial cells; conditions: intracellular accumulation; cited from earlier work
anaesthetized pigs = conditions: cited from earlier work
[5] = tested on: cultured vascular endothelial cells and smooth muscle cells; conditions: cited from earlier work
[6] = tested on: pressor response of big ET; conditions: micromolar concentrations; in vitro and in vivo; cited from earlier work

CC(C)C[C@@H]1NC(=O)[C@@H](C(C)C)NC(=O)[C@@H]2CCCN2C(=O)[C@@H](CC(=O)O)NC(=O)[C@@H](Cc2c[nH]c3ccccc23)NC1=O [BQ-123] (cyclo(L[dW][dD]P[dV]))
ET-1-induced bronchoconstriction and tracheal smooth muscle contraction (allergic sheep): block ET-1-induced bronchoconstriction and tracheal smooth muscle contraction
survival rate (mouse): significantly increased the survival rate

CC[C@H](C)[C@H](NC(=O)OC(C)(C)C)C(=O)N[C@H](C(=O)N[C@@H](Cc1c[nH]c2ccccc12)C(=O)NO)[C@@H](C)CC [Example 2, N-[(1,1-dimethylethoxy)carbonyl]-L-isoleucyl-L-isoleucyl-N-hydroxy-L-tryptophanamide] (Boc-Ile-Ile-Trp-{NHOH})
inhibition at 100 µM ([1]; read-out: % ECE Inhibition): 47%

CC[C@H](C)[C@H](N)C(=O)N[C@H](C(=O)N[C@@H](Cc1c[nH]c2ccccc12)C(=O)NO)[C@@H](C)CC [Example 6, L-isoleucyl-L--isoleucyl-N-hydroxy-L-tryptophanamide, monohydrochloride] (H-Ile-Ile-Trp-{NHOH})
inhibition at 100 µM ([1]; read-out: % ECE Inhibition): 74%

CC[C@H](C)[C@H](NC(=O)CCC(=O)O)C(=O)N[C@H](C(=O)N[C@@H](Cc1c[nH]c2ccccc12)C(=O)NO)[C@@H](C)CC [Example 10] (Suc-Ile-Ile-Trp-{NHOH})
IC50 ([1]; read-out: IC50 (ECE inhibition)): 4.7 µM

CC[C@H](C)[C@H](NC(=O)CCCCCCCCCCN)C(=O)N[C@H](C(=O)N[C@@H](Cc1c[nH]c2ccccc12)C(=O)NOCc1ccccc1)[C@@H](C)CC [Example 12]
inhibition at 100 µM ([1]; read-out: % ECE Inhibition): 65%

CC[C@H](C)[C@H](NC(=O)CCCCCCCCCCN)C(=O)N[C@H](C(=O)N[C@@H](Cc1c[nH]c2ccccc12)C(=O)NO)[C@@H](C)CC [Example 13] (H-[Aun]IIW-{NHOH})
inhibition at 10 µM ([1]; read-out: % ECE Inhibition): 22%
inhibition at 50 µM ([1]; read-out: % ECE Inhibition): 57%

COc1cccc(Oc2c(NS(=O)(=O)c3ccc(C(C)(C)C)cc3)ncnc2OCCO)c1 [RO 46-2005]
efficacy in acute renal ischemia model (rats [2]): effective
efficacy in subarachnoid hemorrhage model (rats [3]): effective

CC(C)CC(=O)N[C@H](C(=O)N[C@H](C(=O)N[C@@H](CC(C)C)[C@@H](O)CC(=O)N[C@@H](C)C(=O)N[C@@H](CC(C)C)[C@@H](O)CC(=O)O)C(C)C)C(C)C [pepstatin] (Isovaleryl-VV[Sta]A[Sta]-OH)
ET-1 production [4]: did not inhibit ET-1 production

CC(C)C[C@H](NP(=O)(O)O[C@@H]1O[C@@H](C)[C@H](O)[C@@H](O)[C@H]1O)C(=O)N[C@@H](Cc1c[nH]c2ccccc12)C(=O)O [phosphoramidon]
plasma ET-1 level (anaesthetized pigs): did not have any effect
vasoconstrictor effects evoked by intravenous big ET-1 (anaesthetized pigs): inhibit vasoconstrictor effects
intracellular conversion of big ET-1 to ET-1 [5]: inhibit the intracellular conversion of big ET-1 to ET-1
pressor response of big ET [6]: block the pressor response of big ET

N-[(1,1-dimethyl-ethoxy) carbonyl]-L-isoleucyl-L-isoleuyl-N-hydroxy-D-tryptophanamide [Example 3]
% ECE Inhibition ([1]; Conc. 100 μM): 46%

N-[(1,1-dimethyl-ethoxy) carbonyl]-L-isoleucyl-N-hydroxy-L-tryptophanamide [Example 4]
% ECE Inhibition ([1]; Conc. 100 μM): 44%

N-[(1,1-dimethylethoxy)-carbonyl]-L-α-aspartyl-L-isoleucyl-n-isoleucyl-1-formyl-N-hydroxy-n-tryptophanamide (Boc-DII[Trp(1-formyl)]-{NHOH}; not fully specified; printed as N-[(1,1-dimethylethoxy)-carbonyl]-L-α-aspartyl-L-isoleucyl-n-isoleucyl-1-formyl-N-hydroxy-n-tryptophanamide) [Example 22]
% ECE Inhibition ([1]; Conc. 10 μM): 53%
% ECE Inhibition ([1]; Conc. 40 μM): 73%
% ECE Inhibition ([1]; Conc. 100 μM): 87%
